# Assay results reported in PMC11010885, “Functional Analysis and Tissue-Specific Expression of Calcitonin and CGRP with RAMP-Modulated Receptors CTR and CLR in Chickens” (Animals : an Open Access Journal from MDPI, 2024).
# How the values were obtained:
# Format in all cases: cell-based
# chicken CTR [1] = assay: cAMP/PKA pGL3-CRE-luciferase reporter assay, CTR + pcDNA in CHO cells
# Method: (§1) Chinese hamster ovary (CHO) cells were cultured in Dulbecco’s modified Eagle’s medium (DMEM) supplemented with 10% (vol/vol) fetal bovine serum (HyClone, Logan, UT, USA), 100 U/mL penicillin G and 100 μg/mL streptomycin. The cells were maintained in a 90 mm culture dish (Nunc, Rochester, NY, USA) and incubated at 37 °C with 5% CO2. To investigate the signaling pathways associated with each receptor in CHO cells, three different reporter systems (pGL3-CRE-luciferase, pGL4-SRE-luciferase, and pGL3-NFAT-RE-luciferase) were utilized to monitor intracellular cAMP/PKA and MAPK/ERK signaling pathways and calcium mobilization of the activated receptors, respectively.
# (§2) Prior to the transfection procedure, the cells were initially cultured in 6-well plates (Nunc, Rochester, NY, USA), maintaining a seeding density of approximately 300,000 cells per well. Upon achieving approximately 70% confluence, the cells underwent a co-transfection process. This procedure entailed the introduction of 700 ng of various luciferase reporter constructs (namely, pGL3-CRE-luciferase, pGL4-SRE-luciferase, or pGL3-NFAT-RE-luciferase) combined with 200 ng of a specific receptor plasmid (CTR or CLR) and 1000 ng of either RAMP1, RAMP2, RAMP3 expression plasmids, or alternatively, the empty pcDNA3.1 (+) vector. A volume of 5.7 μL of PEI MAX was used in 200 μL of buffer following the manufacturer’s protocol. After 24 h of incubation, the transfected CHO cells were subcultured in 96-well plates and passaged for an additional 24 h before peptide treatment. Then, the medium from the 96-well plates was removed, and the cells were treated with chicken CT/CGRP-containing medium (or untreated medium as a control) at concentrations ranging from 10^−12 M to 10^−6 M for 6 h. Subsequently, the cells were harvested for luciferase assays by lysing them in 1 × passive lysis buffer. To measure the luciferase activity of the cell lysate, 40 μL of luciferase assay reagent (Promega, Madison, WI, USA) was mixed with the cell lysate following the manufacturer’s instructions. The fluorescence activity of the luciferase in each treatment group was measured using a multimode microplate reader (TriStar LB941, Berthold Technologies, Bad Wildbad, Germany). Finally, the fluorescence activity of each treatment group was expressed as a relative increase ratio compared to the control group.
# chicken CTR + RAMP1 [2] = assay: cAMP/PKA pGL3-CRE-luciferase reporter assay, CTR + RAMP1 in CHO cells; details: 10^−12 M to 10^−6 M, 6 h, mean ± SEM, n = 3, read-out: EC50, cAMP/PKA signaling pathway
# Method: as §1
# (§3) Prior to the transfection procedure, the cells were initially cultured in 6-well plates (Nunc, Rochester, NY, USA), maintaining a seeding density of approximately 300,000 cells per well. Upon achieving approximately 70% confluence, the cells underwent a co-transfection process. […] The fluorescence activity of the luciferase in each treatment group was measured using a multimode microplate reader (TriStar LB941, Berthold Technologies, Bad Wildbad, Germany). Finally, the fluorescence activity of each treatment group was expressed as a relative increase ratio compared to the control group.
# chicken CTR + RAMP2 [3] = assay: cAMP/PKA pGL3-CRE-luciferase reporter assay, CTR + RAMP2 in CHO cells; details: 10^−12 M to 10^−6 M, 6 h, mean ± SEM, n = 3, read-out: EC50, cAMP/PKA signaling pathway
# Method: as §1, §3
# chicken CTR + RAMP3 [4] = assay: cAMP/PKA pGL3-CRE-luciferase reporter assay, CTR + RAMP3 in CHO cells; details: 10^−12 M to 10^−6 M, 6 h, mean ± SEM, n = 3, read-out: EC50, cAMP/PKA signaling pathway
# Method: as §1, §3
# chicken CLR [5] = assay: cAMP/PKA pGL3-CRE-luciferase reporter assay, CLR + pcDNA in CHO cells
# Method: as §1, §2
# chicken CLR + RAMP1 [6] = assay: cAMP/PKA pGL3-CRE-luciferase reporter assay, CLR + RAMP1 in CHO cells
# Method: as §1
# as §2, with “Subsequently, the cells were harvested for luciferase assays by lysing them in 1 × passive lysis buffer. To measure the luciferase activity of the cell lysate, 40 μL of luciferase assay reagent (Promega, Madison, WI, USA) was mixed with the cell lysate following the manufacturer’s instructions.” left out
# chicken CLR + RAMP2 = assay: cAMP/PKA pGL3-CRE-luciferase reporter assay, CLR + RAMP2 in CHO cells; details: 10^−12 M to 10^−6 M, 6 h, mean ± SEM, n = 3, read-out: EC50, cAMP/PKA signaling pathway
# Method: as §1, §3
# chicken CLR + RAMP3 = assay: cAMP/PKA pGL3-CRE-luciferase reporter assay, CLR + RAMP3 in CHO cells; details: 10^−12 M to 10^−6 M, 6 h, mean ± SEM, n = 3, read-out: EC50, cAMP/PKA signaling pathway
# Method: as §1, §3
# chicken CTR [7] = assay: MAPK/ERK pGL4-SRE-luciferase reporter assay, CTR + pcDNA in CHO cells; details: 10^−12 M to 10^−6 M, 6 h, mean ± SEM, n = 3, read-out: EC50, MAPK/ERK signaling pathway
# Method: as §1, §3
# chicken CTR + RAMP1 [8] = assay: MAPK/ERK pGL4-SRE-luciferase reporter assay, CTR + RAMP1 in CHO cells; details: 10^−12 M to 10^−6 M, 6 h, mean ± SEM, n = 3, read-out: EC50, MAPK/ERK signaling pathway
# Method: as §1, §3
# chicken CTR + RAMP2 [9] = assay: MAPK/ERK pGL4-SRE-luciferase reporter assay, CTR + RAMP2 in CHO cells; details: 10^−12 M to 10^−6 M, 6 h, mean ± SEM, n = 3, read-out: EC50, MAPK/ERK signaling pathway
# Method: as §1, §3
# chicken CTR + RAMP3 [10] = assay: MAPK/ERK pGL4-SRE-luciferase reporter assay, CTR + RAMP3 in CHO cells; details: 10^−12 M to 10^−6 M, 6 h, mean ± SEM, n = 3, read-out: EC50, MAPK/ERK signaling pathway
# Method: as §1, §3
# chicken CLR [11] = assay: MAPK/ERK pGL4-SRE-luciferase reporter assay, CLR + pcDNA in CHO cells; details: 10^−12 M to 10^−6 M, 6 h, mean ± SEM, n = 3, read-out: EC50, MAPK/ERK signaling pathway
# Method: as §1, §3
# chicken CLR + RAMP1 [12] = assay: MAPK/ERK pGL4-SRE-luciferase reporter assay, CLR + RAMP1 in CHO cells; details: 10^−12 M to 10^−6 M, 6 h, mean ± SEM, n = 3, read-out: EC50, MAPK/ERK signaling pathway
# Method: as §1, §3
substance,measurement,setting,value
calcitonin gene-related peptide [CGRP],EC50,"chicken CTR [1]; CTR + pcDNA, CHO cells, pGL3-CRE-luciferase, 10^−12 M to 10^−6 M, 6 h, mean ± SEM, n = 3, read-out: EC50, cAMP/PKA signaling pathway",2.35 ± 0.63 nM
same,"activation (cAMP production), in words",chicken CTR [1]; independent CTR,preferentially activates CTR
same,EC50,chicken CTR + RAMP1 [2],0.1 ± 0.01 nM
same,EC50,chicken CTR + RAMP2 [3],1.63 ± 0.19 nM
same,EC50,chicken CTR + RAMP3 [4],0.24 ± 0.07 nM
same,EC50,"chicken CLR [5]; CLR + pcDNA, CHO cells, pGL3-CRE-luciferase, 10^−12 M to 10^−6 M, 6 h, mean ± SEM, n = 3, read-out: EC50, cAMP/PKA signaling pathway",> 100 nM
same,"activation (cAMP production), in words",chicken CLR [5]; independent CLR,no effect on CLR
same,EC50,"chicken CLR + RAMP1 [6]; CLR + RAMP1, CHO cells, pGL3-CRE-luciferase, 10^−12 M to 10^−6 M, 6 h, mean ± SEM, n = 3, read-out: EC50, cAMP/PKA signaling pathway",0.26 ± 0.03 nM
same,EC50 of CGRP relative to CT,chicken CLR + RAMP1 [6]; CLR in the presence of RAMP1,approximately tenfold lower than CT
same,EC50,chicken CLR + RAMP2,40.9 ± 6.76 nM
same,EC50,chicken CLR + RAMP3,1.84 ± 0.73 nM
same,EC50,chicken CTR [7],6.73 ± 1.78 nM
same,EC50,chicken CTR + RAMP1 [8],0.41 ± 0.08 nM
same,EC50,chicken CTR + RAMP2 [9],10.4 ± 1.12 nM
same,EC50,chicken CTR + RAMP3 [10],0.67 ± 0.24 nM
same,EC50,chicken CLR [11],> 100 nM
same,EC50,chicken CLR + RAMP1 [12],0.66 ± 0.11 nM
